The values below come from PMC10206591, “Identification of small molecules capable of enhancing viral membrane fusion” (Virology Journal, 2023).

Structures can show the parent of a compound that is named as a salt.

The test has as its system SARS-CoV-2 S-mediated membrane fusion.
As to `CC=CC(=O)N(CC)c1ccccc1C` (mixture of isomers) [Crotamiton], the Z-score is on record as 2,94. With `O=c1[nH]cc(F)c(=O)[nH]1` [5-fluorouracil], the Z-score is recorded as 3,16. With `CC(=O)c1ccc2c(c1)N(CCCN(C)C)c1ccccc1S2.O=C(O)/C=C\C(=O)O` [Acetopromazine maleate salt], the Z-score is on record as 1,71. For `CCCSc1ccc2nc(NC(=O)OC)[nH]c2c1` [Albendazole], the Z-score was 1,67. Take `C=CC[C@]1(O)CC[C@H]2[C@@H]3CCC4=CC(=O)CCC4=C3C=C[C@@]21C` [Altrenogest]: the Z-score was 2,61. For the compound `CCCCCC[C@H]1C(=O)O[C@H](C)[C@H](NC(=O)c2cccc(NC=O)c2O)C(=O)O[C@@H](C)[C@@H]1OC(=O)CC(C)C` [Antimycin A], the Z-score is reported as 4,08.

On to `CC(C)c1c(C(=O)Nc2ccccc2)c(-c2ccccc2)c(-c2ccc(F)cc2)n1CC[C@@H](O)C[C@@H](O)CC(=O)O` [Atorvastatin], for which the Z-score is given as 1,88. Take `Nc1nc(O)c2[nH]nnc2n1` [Azaguanine-8]: the Z-score is 6,79.

Take `CCCC1C(=O)N2C(N(C)C)=Nc3ccc(C)cc3N2C1=O` (stereo not drawn) [Azapropazone]: the Z-score is reported as 1,91. As for `CN1CCCC(n2nc(Cc3ccc(Cl)cc3)c3ccccc3c2=O)CC1` (stereo not drawn) [Azelastine hydrochloride], the figure is 1,52.

Turning to `Cl.N[C@@H]1CCCCN(c2c(F)cc3c(=O)c(C(=O)O)cn(C4CC4)c3c2Cl)C1` [Besifloxacin hydrochloride], the Z-score was 2,15. As for `CC(C)C[C@H]1C(=O)N2CCC[C@H]2[C@]2(O)O[C@](NC(=O)[C@@H]3C=C4c5cccc6[nH]c(Br)c(c56)C[C@H]4N(C)C3)(C(C)C)C(=O)N12.CS(=O)(=O)O` [Bromocryptine mesylate], the figure is 5,89; as for `CCCCCCNC(=O)n1cc(F)c(=O)[nH]c1=O` [Carmofur], 4,69; as for `O=C(N[C@H](CO)[C@H](O)c1ccc([N+](=O)[O-])cc1)C(Cl)Cl` [Chloramphenicol], 2,64. Under `Nc1nc(Cl)nc2c1ncn2[C@H]1C[C@H](O)[C@@H](CO)O1` [Cladribine] stands 1,60. As for `CCCCCCC[N+](CC)(CC)CCCCc1ccc(Cl)cc1.Cc1ccc(S(=O)(=O)[O-])cc1` [Clofilium tosylate], the figure is 2,76. With `COc1cc2c(c(OC)c1OC)-c1ccc(OC)c(=O)cc1[C@@H](NC(C)=O)CC2` [Colchicine], the Z-score is recorded as 1,93. For the compound `CN(C)/N=N/c1[nH]cnc1C(N)=O` [Dacarbazine], the Z-score was 2,34. As for `COc1cccc2c1C(=O)c1c(O)c3c(c(O)c1C2=O)C[C@@](O)(C(C)=O)C[C@@H]3O[C@H]1C[C@H](N)[C@H](O)[C@H](C)O1` [Daunorubicin hydrochloride], the figure is 1,79. Under `Cc1cc(N)c2ccccc2[n+]1CCCCCCCCCC[n+]1c(C)cc(N)c2ccccc21` [Dequalinium dichloride] stands 4,90; under `Clc1ccc2c(c1)CCc1cccnc1C2=C1CCNCC1` [Desloratadine], 1,59; under `CC1(C)O[C@@H]2C[C@H]3[C@@H]4CCC5=CC(=O)C=C[C@]5(C)[C@H]4[C@@H](O)C[C@]3(C)[C@]2(C(=O)CO)O1` [Desonide], 1,59. For `CC(=O)O[C@@]12CO[C@@H]1C[C@H](O)[C@@]1(C)C(=O)[C@H](O)C3=C(C)[C@@H](OC(=O)[C@H](O)[C@@H](NC(=O)OC(C)(C)C)c4ccccc4)C[C@@](O)([C@@H](OC(=O)c4ccccc4)[C@H]21)C3(C)C` [Docetaxel], the Z-score is given as 1,72.

`COc1cccc2c1C(=O)c1c(O)c3c(c(O)c1C2=O)C[C@@](O)(C(=O)CO)C[C@@H]3O[C@H]1C[C@H](N)[C@H](O)[C@H](C)O1` [Doxorubicin hydrochloride]: the Z-score is on record as 4,48.

In the case of `C[C@H]1c2cccc(O)c2C(=O)C2=C(O)[C@]3(O)C(=O)C(C(N)=O)=C(O)[C@@H](N(C)C)[C@@H]3[C@@H](O)[C@@H]21` [Doxycycline hydrochloride], the Z-score was 3,00.

Regarding `C=CCOC(Cn1ccnc1)c1ccc(Cl)cc1Cl` (stereo not drawn) [Enilconazole], the Z-score was 3,25.

Consider `C[C@]12CC[C@H]3C(=CCc4cc(O)ccc43)[C@@H]1CCC2=O` [Equilin], for which the Z-score was 1,98. Under `C[C@]12CC[C@@H]3c4ccc(OC(=O)N(CCCl)CCCl)cc4CC[C@H]3[C@@H]1CC[C@@H]2O` [Estramustine] stands 3,30; under `CCOc1ccc(Cc2nccc3cc(OCC)c(OCC)cc23)cc1OCC` [Ethaverine hydrochloride], 4,10; under `C#C[C@]1(O)CC[C@H]2[C@@H]3CCc4cc(OC)ccc4[C@H]3CC[C@@]21C` [Ethynylestradiol 3-methyl ether], 1,52. On to `O=c1[nH]c(=O)n([C@H]2C[C@H](O)[C@@H](CO)O2)cc1F` [Floxuridine], for which the Z-score is 4,71. Consider `COC(=O)Nc1nc2cc(C(=O)c3ccc(F)cc3)ccc2[nH]1` [Flubendazol], for which the Z-score is on record as 3,95. As for `CC(=O)O[C@H]1C[C@@]2(C)[C@@H](C[C@@H](O)[C@H]3[C@@]4(C)CC[C@@H](O)[C@@H](C)[C@@H]4CC[C@@]32C)/C1=C(\CCC=C(C)C)C(=O)O` [Fusidic acid sodium salt], the figure is 2,35; as for `COc1cc2ncnc(Nc3ccc(F)c(Cl)c3)c2cc1OCCCN1CCOCC1` [Gefitinib], 3,33. Under `Oc1c(Cl)cc(Cl)c(Cl)c1Cc1c(O)c(Cl)cc(Cl)c1Cl` [Hexachlorophene] stands 3,99; under `CC[C@H](c1ccc(O)cc1)[C@@H](CC)c1ccc(O)cc1` [Hexestrol], 2,65; under `CN1CCCN(C(c2ccccc2)c2ccc(Cl)cc2)CC1.Cl.Cl` (stereo not drawn) [Homochlorcyclizine dihydrochloride], 2,19. Under `CC(C)C(=O)c1c(C(C)C)nn2ccccc12` [Ibudilast] stands 1,71. On to `Cc1ccc(NC(=O)c2ccc(CN3CCN(C)CC3)cc2)cc1Nc1nccc(-c2cccnc2)n1` [Imatinib], for which the Z-score was 2,20.

Turning to `CC(C)Oc1ccc2c(=O)c(-c3ccccc3)coc2c1` [Ipriflavone], the Z-score is 2,37. Consider `CCc1c2c(nc3ccc(OC(=O)N4CCC(N5CCCCC5)CC4)cc13)-c1cc3c(c(=O)n1C2)COC(=O)[C@]3(O)CC.Cl.O.O.O` [Irinotecan hydrochloride trihydrate], for which the Z-score was 4,23. For the compound `Cc1c(OCC(F)(F)F)ccnc1C[S+]([O-])c1nc2ccccc2[nH]1` (stereo not drawn) [Lansoprazole], the Z-score was 3,43. For `CNCCCC12CCC(c3ccccc31)c1ccccc12` [Maprotiline hydrochloride], the Z-score was 2,05.

On to `O=C([O-])c1ccccc1-c1c2cc(Br)c(=O)cc-2oc2[c]([Hg+])c([O-])c(Br)cc12.[Na+].[Na+].[OH-]` [Merbromin], for which the Z-score is 8,74.

Take `COC(=O)Nc1nc2ccc(SC(C)C)cc2[nH]1` [Methiazole]: the Z-score is on record as 3,16. Consider `CC[C@H](C)C(=O)O[C@H]1CCC=C2C=C[C@H](C)[C@H](CC[C@@H]3C[C@@H](O)CC(=O)O3)[C@H]21` [Mevastatin], for which the Z-score was 1,92. As for `CN(C)c1ccc(O)c2c1C[C@H]1C[C@H]3[C@H](N(C)C)C(O)=C(C(N)=O)C(=O)[C@@]3(O)C(O)=C1C2=O` [Minocycline hydrochloride], the figure is 4,43; as for `CN(c1nccc(=O)[nH]1)C1CCN(c2nc3ccccc3n2Cc2ccc(F)cc2)CC1` [Mizolastine], 2,15. Take `C[C@@H]1C[C@H]2[C@@H]3CCC4=CC(=O)C=C[C@]4(C)[C@@]3(Cl)[C@@H](O)C[C@]2(C)[C@@]1(OC(=O)c1ccco1)C(=O)CCl` [Mometasone furoate]: the Z-score was 2,51. Take `C/C(=C\C(=O)OCCCCCCCCC(=O)O)C[C@@H]1OC[C@H](C[C@@H]2O[C@H]2[C@@H](C)[C@H](C)O)[C@@H](O)[C@H]1O` [Mupirocin]: the Z-score is reported as 1,57.

As to `O=C1CN(/N=C/c2ccc([N+](=O)[O-])o2)C(=O)N1` [Nitrofurantoin], the Z-score is 2,23.

As to `COC(=O)Nc1nc2ccc(C(=O)c3cccs3)cc2[nH]1` [Nocodazole], the Z-score is recorded as 2,99. As for `COC(=O)Nc1nc2ccc([S+]([O-])c3ccccc3)cc2[nH]1` (stereo not drawn) [Oxfendazol], the figure is 1,63; as for `CCCOc1ccc2nc(NC(=O)OC)[nH]c2c1` [Oxibendazol], 2,13. Take `CN(C)[C@@H]1C(O)=C(C(N)=O)C(=O)[C@@]2(O)C(O)=C3C(=O)c4c(O)cccc4[C@@](C)(O)[C@H]3[C@H](O)[C@@H]12` [Oxytetracycline dihydrate]: the Z-score was 2,06. As for `COc1ccc(Cc2nccc3cc(OC)c(OC)cc23)cc1OC` [Papaverine hydrochloride], the figure is 4,33. As for `CCCCc1ccc2[nH]c(NC(=O)OC)nc2c1` [Parbendazole], the figure is 2,56; as for `N=C(N)c1ccc(OCCCCCOc2ccc(C(=N)N)cc2)cc1` [Pentamidine isethionate], 6,07.

With `O=C(O)CN(CCN(CC(=O)O)CC(=O)O)CCN(CC(=O)O)CC(=O)O` [Pentetic acid], the Z-score is reported as 2,14.

`C1CCC(C(CC2CCCCN2)C2CCCCC2)CC1` (stereo not drawn) [Perhexiline maleate]: the Z-score was 2,68.

On to `CC(=O)Nc1ccc(OCC(O)CNC(C)C)cc1` (stereo not drawn) [Practolol], for which the Z-score is given as 1,57. As to `COCCCOc1ccnc(C[S+]([O-])c2nc3ccccc3[nH]2)c1C` (stereo not drawn) [Rabeprazole Sodium salt], the Z-score is listed as 3,89. Consider `O=C(O)c1cn(-c2ccc(F)cc2)c2cc(N3CCNCC3)c(F)cc2c1=O` [Sarafloxacin], for which the Z-score is 2,16. As for `C[C@@H]1CN(c2c(F)c(N)c3c(=O)c(C(=O)O)cn(C4CC4)c3c2F)C[C@H](C)N1` [Sparfloxacin], the figure is 2,09; as for `CS(=O)(=O)c1ccc([C@@H](O)[C@@H](CO)NC(=O)C(Cl)Cl)cc1` [Thiamphenicol], 2,42; as for `CN1CCN(CCCN2c3ccccc3Sc3ccc(S(=O)(=O)N(C)C)cc32)CC1.CS(=O)(=O)O.CS(=O)(=O)O` [Thioproperazine dimesylate], 2,39.
